US20110136151A1, “ASSAYS FOR DIAGNOSING AND EVALUATING TREATMENT OPTIONS FOR POMPE DISEASE” (AMICUS THERAPEUTICS, INC., priority 2008, published 2011)

How the values were obtained:
GAA [1] = experiment: GAA levels after longer treatment of cynomolgus monkeys; type: in vivo; details: treatment 4-13 weeks
GAA [2] = target: T1, GAA (Mus musculus, UniProt P70699); experiment: GAA levels after longer treatment of wild type mice; type: in vivo; details: treatment 4-13 weeks
T1 construct: treatment of wild type mice and cynomolgus monkeys for longer periods of time; from tissue; host or cells: wild type mice
T1 sequence (P70699 70-953): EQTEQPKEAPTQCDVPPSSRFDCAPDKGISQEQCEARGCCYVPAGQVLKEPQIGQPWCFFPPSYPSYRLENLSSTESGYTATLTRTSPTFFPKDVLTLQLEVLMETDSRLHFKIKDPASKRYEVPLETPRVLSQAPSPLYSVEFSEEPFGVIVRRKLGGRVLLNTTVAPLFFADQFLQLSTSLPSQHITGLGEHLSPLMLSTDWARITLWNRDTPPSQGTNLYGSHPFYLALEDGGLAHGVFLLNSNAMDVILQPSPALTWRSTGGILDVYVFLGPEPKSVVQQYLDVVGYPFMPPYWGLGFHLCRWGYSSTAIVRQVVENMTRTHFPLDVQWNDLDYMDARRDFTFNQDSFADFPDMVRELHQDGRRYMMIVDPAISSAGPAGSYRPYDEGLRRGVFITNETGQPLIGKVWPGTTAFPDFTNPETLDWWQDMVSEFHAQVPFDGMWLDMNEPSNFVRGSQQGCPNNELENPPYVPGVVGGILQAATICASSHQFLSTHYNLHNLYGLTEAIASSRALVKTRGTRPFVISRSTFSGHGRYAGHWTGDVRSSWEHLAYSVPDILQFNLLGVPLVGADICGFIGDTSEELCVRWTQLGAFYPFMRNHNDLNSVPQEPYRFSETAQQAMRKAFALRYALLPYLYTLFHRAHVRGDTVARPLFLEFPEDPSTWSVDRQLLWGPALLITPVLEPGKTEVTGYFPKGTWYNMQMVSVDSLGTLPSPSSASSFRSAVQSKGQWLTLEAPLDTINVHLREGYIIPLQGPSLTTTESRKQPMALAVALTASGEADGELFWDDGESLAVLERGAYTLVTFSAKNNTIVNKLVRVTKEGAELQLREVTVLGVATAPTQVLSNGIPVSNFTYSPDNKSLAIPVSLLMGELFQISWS

acid α-glucosidase (GAA) = experiment: Ex vivo GAA enhancement assay in Pompe patient-derived lymphoblast cell lines treated with DNJ (4-MU-alpha-Glc lysate activity); type: cell-based, human; details: five days
Protocol: Lymphoblast cell lines were derived from 26 patients and treated with DNJ (0, 30, 100 and 300 μM) for five days. Lymphoblastoid cell lines (LCLs) are leukocyte cultures (primarily B cells) that have been transformed with the Epstein-Barr Virus (EBV) to produce proliferative suspension cultures. Leukocyte cultures were prepared as described in Example 2, and transformed with the EBV to establish the lymphoblast cells. Because well established LCLs can be very fast-growing (even those with genetic and metabolic disorders), their density must be carefully controlled to prevent overcrowding over an extended period. The following protocol details cell seeding density, treatment with a test compound (i.e. DNJ) treatment compound washout, lysing, and assaying of LCLs for the measurement of acid α-glucoside (GAA) with the test compound.
• 1. All cell culture work was performed in a BLII Bio-safety cabinet using sterile techniques. LCL culture was expanded to a T75 by transferring 7e^6-1e^7 cells total to a T75 and add 40 ml 37° C. complete growth media. • 2. Optimal LCL cultures were selected in T75 flasks based on cell density and viability. A cell count was performed on these cultures. Usually a cell density of 1e^6 cells/ml maintains LCLs at the highest viability (90-98% viable). Cells densities higher than 1e^6 cells/ml drastically reduce the overall viability in the culture. • 3. A sterile 50 ml conical centrifuge tube was used to prepare a cell suspension in the appropriate amount of complete growth media to obtain a final cell density of approximately 2.0×10^5 cells/ml at a volume of at least 20 ml. (For example, if the original culture contains 1e^6 cells/ml, 16 ml media should be added to 4 ml of the cell suspension in the staging tube to create a density of 2e^5 cells/ml in a volume of 20 ml.). Cell suspensions were dispensed into four labeled T25 flasks at 5 ml each total volume. This process is repeated for each LCL to be processed. All flasks were placed in a humidified 5% CO2 37° C. incubator overnight. The original T75 cultures can be expanded and returned to the same incubator, if necessary. 5. Treatment with Test Compound • 1. Treatment of the cells with the DNJ test compound was performed 24 hours after the cells were seeded into T25 flasks. • 2. 5 ml of each treatment concentration is required for each cell line. Cell lines were treated with test compound over a concentration range of 0, x, 3x, and 10x test compound. • 3. A 2x stock of test compound solution was prepared in sterile 15 ml or 50 ml centrifuge tubes for each condition and 5 ml solution was added to 5 ml pre-incubated culture. Stock concentrations of 0, 60, 200, and 600 μM DNJ were made; when added to the flasks, the final concentrations were 0, 30, 100, and 300 μM DNJ. • 4. Each set of flasks were marked with the appropriate treatment concentrations, and 5 ml from the corresponding stock suspension were added to each flask. All flasks were returned to the incubator for 5 days.
• 1. After five days (120 hours) of treatment, 100% of the media was exchanged in the cell suspension with compound-free complete media in the following manner; • 2. The contents of each T25 was transferred to a sterile 15 ml conical centrifuge tube that had been pre-numbered to maintain order of concentration range. • 3. After each set was transferred, each T25 was washed with 5 ml blank RPMI 1640 (no phenol red). • 4. The tubes were centrifuged at 21° C. for 10 min at 600 g. During the spin, the blank RPMI was removed from the flasks by aspiration, maintaining sterility. • 5. Following the centrifugation, the supernatant was removed from the tubes by aspiration and the pellets were resuspended in 10 ml complete media. The cell suspensions were transferred back to their respective flasksAll flasks were returned to the 5% CO2 37° C. incubator overnight.

[3] = 24/26 patient lymphoblast cell lines, DNJ 30-300 μM
[4] = patient cell lines with at least one missense mutation
[5] = patient cell lines with one copy of IVS1 13T>G and one copy of a non-missense null mutation

- increase in GAA levels (GAA [2]): ≥ 2 fold
SMILES: OC[C@H]1NCC(O)[C@@H](O)C1O (stereo partly drawn) [DNJ, 1-deoxynojirimycin]
- increase in GAA levels (GAA [1]): ≥ 2 fold
- increase in GAA levels, mean (acid α-glucosidase (GAA); [3]): 93%
- increase in GAA levels, range (acid α-glucosidase (GAA); [3]): 7-620%
- dose-dependent increase in GAA levels, mean (acid α-glucosidase (GAA); [4]): 219%
- dose-dependent increase in GAA levels, range (acid α-glucosidase (GAA); [4]): 7-620%
- increase in GAA levels, mean (acid α-glucosidase (GAA); [5]): 22%
- increase in GAA levels, range (acid α-glucosidase (GAA); [5]): 7-51%
- patient cell lines with dose-dependent increase in GAA levels (acid α-glucosidase (GAA); patient-derived lymphoblasts, DNJ 0, 30, 100 and 300 μM): 24/26
